Inconclusive results and toxic doses are left out. Peptide text beside a SMILES is read from it. * marks the point of attachment. Cbz = O=C(OCc1ccccc1)*
System: P388 leukemia ip, CD2F1 mice, survival T/C
Test: NCI In Vivo Anticancer Drug Screen. Data for tumor model P388 Leukemia (intraperitoneal) in CD2F1 (CDF1) mice
Details: endpoint: median survival time, higher = longer survival
How it was run: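 Mice carrying the transplanted tumor received test compound or vehicle. Survival was recorded in each group, and the value is the treated-group measurement divided by that of the vehicle-treated control group.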

[1] = dose: 100.0 mg/kg/injection, schedule: Q01DX001 (ip), vehicle: saline with Tween-80
[2] = dose: 200.0 mg/kg/injection, schedule: Q01DX001 (ip), vehicle: saline with Tween-80
[3] = dose: 50.0 mg/kg/injection, schedule: Q01DX001 (ip), vehicle: Klucel (hydroxypropylcellulose) (HPC)
[4] = dose: 100.0 mg/kg/injection, schedule: Q01DX001 (ip), vehicle: Klucel (hydroxypropylcellulose) (HPC)
[5] = dose: 200.0 mg/kg/injection, schedule: Q01DX001 (ip), vehicle: Klucel (hydroxypropylcellulose) (HPC)
[6] = dose: 50.0 mg/kg/injection, schedule: Q01DX005 (ip), vehicle: Klucel (hydroxypropylcellulose) (HPC)
[7] = dose: 100.0 mg/kg/injection, schedule: Q01DX005 (ip), vehicle: Klucel (hydroxypropylcellulose) (HPC)
[8] = dose: 50.0 mg/kg/injection, schedule: Q01DX005 (ip), vehicle: saline with Tween-80
[9] = dose: 100.0 mg/kg/injection, schedule: Q01DX005 (ip), vehicle: saline with Tween-80
[10] = dose: 200.0 mg/kg/injection, schedule: Q01DX005 (ip), vehicle: saline with Tween-80

Question: For `CCOC(=O)c1c2c(c[nH]c1=O)CCCC2`, which T/C [1] is on record?
Answer: The T/C was 106 % of control.

Question: And the T/C [2]?
Answer: Its T/C is 97 % of control.

Question: How did the T/C (dose: 25.0 mg/kg/injection, schedule: Q01DX009 (ip), vehicle: other) turn out when `CCOC(=O)C1=C(C)NC(C)=C(C(=O)OCC)C1c1ccc(OC)c(OC)c1` was run?
Answer: The T/C was 106 % of control.

Question: And the T/C (dose: 50.0 mg/kg/injection, schedule: Q01DX009 (ip), vehicle: other)?
Answer: Its T/C is 103 % of control.

Question: What about the T/C (dose: 100.0 mg/kg/injection, schedule: Q01DX009 (ip), vehicle: other) of the same compound?
Answer: Its T/C is 97 % of control.

Question: What about the T/C (dose: 200.0 mg/kg/injection, schedule: Q01DX009 (ip), vehicle: other) of the same compound?
Answer: The T/C was 97 % of control.

Question: And the T/C (dose: 400.0 mg/kg/injection, schedule: Q01DX009 (ip), vehicle: other)?
Answer: Its T/C is 88 % of control.

Question: How did the T/C (dose: 60.0 mg/kg/injection, schedule: Q01DX005 (ip), vehicle: saline) turn out when `CCc1cc(-c2cc(CC)on2)no1` was run?
Answer: Its T/C is 103 % of control.

Question: And the T/C (dose: 120.0 mg/kg/injection, schedule: Q01DX005 (ip), vehicle: saline)?
Answer: The T/C was 100 % of control.

Question: And the T/C (dose: 240.0 mg/kg/injection, schedule: Q01DX005 (ip), vehicle: saline)?
Answer: The T/C was 91 % of control.

Question: With `NC(=O)C(=O)NNc1cccc(Cl)n1` as the compound, how does the T/C [3] read?
Answer: Its T/C is 96 % of control.

Question: And the T/C [4]?
Answer: Its T/C is 98 % of control.

Question: What about the T/C [5] of the same compound?
Answer: Its T/C is 103 % of control.

Question: For `OCC(COCCCCCCCCCCCC1C=CCC1)OCCCCCCCCCCCC1C=CCC1` (stereo not given), which T/C (dose: 100.0 mg/kg/injection, schedule: Q04DX003 (ip), vehicle: saline) is on record?
Answer: Its T/C is 101 % of control.

Question: And the T/C (dose: 200.0 mg/kg/injection, schedule: Q04DX003 (ip), vehicle: saline)?
Answer: Its T/C is 104 % of control.

Question: What about the T/C (dose: 400.0 mg/kg/injection, schedule: Q04DX003 (ip), vehicle: saline) of the same compound?
Answer: Its T/C is 104 % of control.

Question: With `Cc1cc(O)c(C=O)c2c1C(=O)Oc1c(CO)c(O)c3c(c1O2)C(O)OC3=O` (stereo not given) as the compound, how does the T/C (dose: 50.0 mg/kg/injection, schedule: Q01DX009 (ip), vehicle: saline with Tween-80) read?
Answer: Its T/C is 124 % of control.

Question: How did the T/C [6] turn out when `Nc1nc(N)c(Cc2ccccn2)cc1Cc1ccccn1` was run?
Answer: Its T/C is 98 % of control.

Question: And the T/C [7]?
Answer: The T/C was 103 % of control.

Question: What does the source list for `Nc1ccc2c(-c3ccccc3)cc(=O)[nH]c2c1`?
Answer: T/C [6]: 95 % of control; T/C [7]: 100 % of control

Question: `Nc1cc2ccncc2c2ccccc12` was tested. Which T/C (dose: 50.0 mg/kg/injection, schedule: Q04DX003 (ip), vehicle: saline sonified) did it give?
Answer: Its T/C is 100 % of control.

Question: And the T/C (dose: 100.0 mg/kg/injection, schedule: Q04DX003 (ip), vehicle: saline sonified)?
Answer: Its T/C is 90 % of control.

Question: What about the T/C (dose: 200.0 mg/kg/injection, schedule: Q04DX003 (ip), vehicle: saline sonified) of the same compound?
Answer: The T/C was 95 % of control.

Question: Which T/C [8] does the source give for `c1cncc(-c2c3ccccc3cc3ccc4ccccc4c23)c1` here?
Answer: Its T/C is 104 % of control.

Question: What about the T/C [9] of the same compound?
Answer: The T/C was 103 % of control.

Question: And the T/C [10]?
Answer: The T/C was 100 % of control.

Question: Which results are given for `Cc1nn2c(-c3cnns3)nnc2s1`?
Answer: T/C [3]: 107 % of control; T/C [4]: 107 % of control; T/C [5]: 100 % of control

Question: What does the source list for `CC(C)(C)Nc1nc2ccccc2c(=O)o1`?
Answer: T/C [1]: 101 % of control; T/C [2]: 106 % of control; T/C (dose: 400.0 mg/kg/injection, schedule: Q01DX001 (ip), vehicle: saline with Tween-80): 116 % of control

Question: What does the source list for `O=C1C2=C(Nc3cc(Cl)ccc3N2)OC1c1ccccc1Cl` (stereo not given)?
Answer: T/C (dose: 60.0 mg/kg/injection, schedule: Q01DX005 (ip), vehicle: Klucel (hydroxypropylcellulose) (HPC)): 95 % of control; T/C (dose: 120.0 mg/kg/injection, schedule: Q01DX005 (ip), vehicle: Klucel (hydroxypropylcellulose) (HPC)): 94 % of control; T/C (dose: 240.0 mg/kg/injection, schedule: Q01DX005 (ip), vehicle: Klucel (hydroxypropylcellulose) (HPC)): 104 % of control

Question: What does the source list for `COc1ccc2c(c1)[C@]13CCN(C)[C@H](C2)[C@@H]1CCC1(C3)OCCO1`?
Answer: T/C [1]: 104 % of control; T/C [2]: 106 % of control

Question: Which T/C [8] does the source give for `CC(NC(=O)OCc1ccccc1)C(=O)NC(CCCN=C(N)N)C(=O)O` (stereo not drawn) (Cbz-Ala-Arg-OH; configuration not given here) here?
Answer: Its T/C is 100 % of control.

Question: What about the T/C [9] of the same compound?
Answer: The T/C was 105 % of control.

Question: What about the T/C [10] of the same compound?
Answer: The T/C was 108 % of control.

Question: Which results are given for `N=Nc1c(O)[nH]c2ccccc12`?
Answer: T/C (dose: 50.0 mg/kg/injection, schedule: Q01DX009 (ip), vehicle: Klucel (hydroxypropylcellulose) (HPC)): 89 % of control; T/C (dose: 100.0 mg/kg/injection, schedule: Q01DX009 (ip), vehicle: Klucel (hydroxypropylcellulose) (HPC)): 89 % of control; T/C (dose: 200.0 mg/kg/injection, schedule: Q01DX009 (ip), vehicle: Klucel (hydroxypropylcellulose) (HPC)): 95 % of control; T/C (dose: 400.0 mg/kg/injection, schedule: Q01DX009 (ip), vehicle: Klucel (hydroxypropylcellulose) (HPC)): 100 % of control

Reference: PubChem BioAssay AID330 (DTP/NCI, 2004)
